# According to patent publication US8901140B2, “6-amino quinazoline or 3-cyano quinoline derivatives, preparation methods and pharmaceutical uses thereof” (Jiangsu Hengrui Medicine Co., Ltd., priority 2009, dated 2014):
# Columns and labels:
# [1] = molecular target: EGFR kinase (Homo sapiens (Human), UniProt P00533); experiment: EGFR Kinase Activity Assay (Time-Resolved fluorescence); assay type: biochemical; settings: human-derived recombinant EGFR kinase, 20 μM ATP, 25° C., 45 minutes; read-out: IC50 (EGFR/BIO)
# Procedure: The in vitro EGFR kinase activity was tested by the following assay.
# The following assay may be used to determine the activity of the compounds of the invention for inhibiting EGFR kinase activity. […] EGFR kinase used in this assay is a human-derived recombinant protein (Cell signaling technology, #7908), which was reacted with peptide substrate and different concentrations of tested compounds in a buffer solution containing 60 mM HEPES (pH7.5), 5 mM MgCl2, 5 mM MnCl2, 3 μM Na3VO4, […] (1000×) and 20 μM ATP at 25° C., for 45 minutes. The EGFR kinase activity was determined by using a Time-Resolved fluorescence method.
# [2] = test system: human epidermoid carcinoma A431 cells; experiment: EGFR Cell Proliferation Inhibition Assay (SRB method, 72 hours); assay type: cell-based; settings: A-431
# Description: The activity is represented by the IC50 value. The general procedures of the assay are given as follows: The cancer cells A431 that highly expressing EGFR (Institute of biochemistry and cell biology) were chosen and seeded to 96-well cell culture plate at a suitable concentration (e.g., 5000 cells/mL medium). […] Then, the cell culture medium was replaced by fresh one with tested compounds added in it at serial concentrations (general 6 to 7 concentrations). Then the cells were put back to the incubator and cultured continuously. 72 hours later, the activity of the tested compounds for inhibiting the cell proliferation was determined by using Sulforhodamine B (SRB) method. IC50 value on tested cells are calculated by the data of inhibition rates of serial concentrations of the tested compounds.
# [3] = Pharmacokinetics Assay in rats, intragastric administration, LC/MS/MS; assay type: in vivo; settings: both sexes, rat, plasma, po, SD rats, 25 mg/kg; for Vd/F: read-out: Apparent Distribution Volume Vz/F; for CL/F: read-out: Clearance CL/F (converted); for half-life: read-out: Half-Life t½ (converted); for Cmax: read-out: Plasma Conc. Cmax
# Procedure: The pharmacokinetic behavior of the compounds of the present invention was studied and evaluated in rats. 8 healthy adult SD rats, male and female in half, were purchased from SINO-BRITSH SIPPR/BK LAB. ANIMAL LTD., CO, License number: SCXK (Shanghai) 2003-0002 The right amount of compounds were weighted and grinded with 0.5% Sodium Carboxymethyl cellulose uniformly, suspended them with 1% tween 80 to 2.5 mg/mL of suspension before use. […] 8 Healthy adult adult SD rats, male and female in half, were divided into 2 groups. After an overnight fast, the rats were administered intragastrically at a dose of 25.0 mg/kg. […] The plasma samples were stored at −20° C. until analysis. The rats were fed 2 hours after administration. 50 μL of rat plasmas taken at various time points after administration were mixed with 50 μL of standard series solution to obtain plasma concentration of 50.0, 100, 200, 500, 1000, 2000, 5000 ng/mL. 150 μL methanol was added and then the mixture was mixed for 3 minute using a vortexer and centrifuged for 10 minutes at 13,500 rpm. 10 μL of the supernatant was analyzed by LC-MS/MS. The main pharmacokinetic parameters were caculated by DAS 2.0 software.
# [4] = test system: xenografts of Calu-3 human lung cancer; experiment: Therapeutic effects against xenografts of Calu-3 human lung cancer in nude mice; assay type: in vivo, BALB/cA-nude mice; settings: for tolerance of the mice: present administration protocol
# Procedure: BALB/cA-nude mice, 6 to 7 weeks old, ♀, purchased from Slaccas Experimental Animal LTD., CO.
# Nude mice were hypodermic inoculated Calu-3 human lung cancer cell. After tumors grew to 150-250 mm^3, mice were randomly divided into teams (d0).
# The volume of tumors and the weigh of the mice were measured and recorded for 2-3 times per week.
# The calculation formula of the volume of tumor (V) is: V=½×a×b^2, a: length of tumor, b: width of tumor.
# [5] = high dose (200 mg/kg), Calu-3 xenografts
# [6] = low dose (100 mg/kg), Calu-3 xenografts
# Chain of EGFR kinase (P00533 25-1210): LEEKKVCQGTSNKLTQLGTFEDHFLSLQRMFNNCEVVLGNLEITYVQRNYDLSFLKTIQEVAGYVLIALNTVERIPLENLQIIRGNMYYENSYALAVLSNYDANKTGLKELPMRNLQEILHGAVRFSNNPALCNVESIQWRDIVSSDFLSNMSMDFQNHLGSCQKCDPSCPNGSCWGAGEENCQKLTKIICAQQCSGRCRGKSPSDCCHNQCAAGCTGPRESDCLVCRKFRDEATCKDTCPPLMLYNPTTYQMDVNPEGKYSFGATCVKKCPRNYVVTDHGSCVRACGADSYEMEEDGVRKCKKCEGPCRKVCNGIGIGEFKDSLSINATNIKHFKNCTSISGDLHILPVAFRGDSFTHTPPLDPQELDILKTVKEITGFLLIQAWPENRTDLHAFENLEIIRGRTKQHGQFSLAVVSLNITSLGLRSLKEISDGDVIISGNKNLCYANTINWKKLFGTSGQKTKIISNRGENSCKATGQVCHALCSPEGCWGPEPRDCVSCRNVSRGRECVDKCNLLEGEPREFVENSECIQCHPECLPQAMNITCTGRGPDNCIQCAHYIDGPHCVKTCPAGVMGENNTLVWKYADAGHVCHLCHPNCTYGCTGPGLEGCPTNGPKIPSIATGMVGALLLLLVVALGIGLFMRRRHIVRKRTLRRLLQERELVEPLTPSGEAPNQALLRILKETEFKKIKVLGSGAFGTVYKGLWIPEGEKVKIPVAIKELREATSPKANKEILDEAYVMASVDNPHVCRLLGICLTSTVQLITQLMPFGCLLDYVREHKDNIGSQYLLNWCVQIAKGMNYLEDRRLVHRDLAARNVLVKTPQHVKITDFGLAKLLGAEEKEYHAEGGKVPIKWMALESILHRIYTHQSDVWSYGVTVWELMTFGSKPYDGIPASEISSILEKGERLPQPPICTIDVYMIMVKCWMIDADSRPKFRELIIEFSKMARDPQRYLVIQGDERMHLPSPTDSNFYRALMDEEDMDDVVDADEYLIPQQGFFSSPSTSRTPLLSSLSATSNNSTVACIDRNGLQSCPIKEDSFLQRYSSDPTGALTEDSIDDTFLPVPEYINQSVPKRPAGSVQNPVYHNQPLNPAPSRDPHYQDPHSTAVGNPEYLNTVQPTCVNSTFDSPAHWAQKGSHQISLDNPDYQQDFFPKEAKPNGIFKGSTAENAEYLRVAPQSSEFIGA
SMILES,IC50 [1] [nM],IC50 [2] [nM],Vd/F [3] [L/kg],CL/F [3] [mL/min/kg],half-life [3] [h],Cmax [3] [ng/mL],"reduced tumor volume (fraction of tumors) [4, 5]","reduced tumor volume (fraction of tumors) [4, 6]",tolerance of the mice [4],also measured
"CCOc1cc2ncc(C#N)c(Nc3ccc(OCc4ccccn4)c(Cl)c3)c2cc1NC(=O)/C=C/[C@@H]1CCCN1 [Example 2, (E)-N-[4-[[3-Chloro-4-(2-pyridylmethoxy)phenyl]amino]-3-cyano-7-ethoxy-6-quinolyl]-3-[(2S)-pyrrolidin-2-yl]prop-2-enamide]",6,3,–,–,–,–,–,–,–,–
"CCOc1cc2ncnc(Nc3ccc(F)c(Cl)c3)c2cc1NC(=O)/C=C/[C@H]1CCCN1C [Example 9, (E)-N-[4-[(3-Chloro-4-fluoro-phenyl)amino]-7-ethoxy-quinazolin-6-yl]-3-[(2R)-1-methylpyrrolidin-2-yl]prop-2-enamide]",2,8,–,–,–,–,–,–,–,–
"CCOc1cc2ncc(C#N)c(Nc3ccc(OCc4ccccn4)c(Cl)c3)c2cc1NC(=O)/C=C/[C@@H]1CCCN1C [Example 1, (E)-N-[4-[[3-Chloro-4-(2-pyridylmethoxy)phenyl]amino]-3-cyano-7-ethoxy-6-quinolyl]-3-[(2S)-1-methylpyrrolidin-2-yl]prop-2-enamide]",–,–,3.71 ± 1.68,12.7,4.04 ± 1.39,4480 ± 1880,1/6,2/6,well tolerant,"MRT ([3]; read-out: Mean Residence Time MRT): 7.78 ± 1.89 h; inhibition of the growth of Calu-3 human lung cancer (in words) ([4]; Calu-3 xenografts): markedly inhibited; completely degraded tumor (fraction of tumors) [4, 5]: 1/6"
"CCOc1cc2ncnc(Nc3ccc(F)c(Cl)c3)c2cc1NC(=O)/C=C/[C@@H]1CCCN1C [Example 7, (E)-N-[4-[(3-Chloro-4-fluoro-phenyl)amino]-7-ethoxy-quinazolin-6-yl]-3-[(2S)-1-methylpyrrolidin-2-yl]prop-2-enamide]",4,–,–,–,–,–,–,–,–,–
"CCOc1cc2ncc(C#N)c(Nc3ccc(OCc4ccccn4)c(Cl)c3)c2cc1NC(=O)/C=C/[C@@H]1C[C@@H](O)CN1C [Example 3, (E)-N-[4-[[3-Chloro-4-(2-pyridylmethoxy)phenyl]amino]-3-cyano-7-ethoxy-6-quinolyl]-3-[(2S,4R)-4-hydroxy-1-methyl-pyrrolidin-2-yl]prop-2-enamide]",59,36,–,–,–,–,–,–,–,–
"CCOc1cc2ncc(C#N)c(Nc3ccc(OCc4ccccn4)c(Cl)c3)c2cc1NC(=O)/C=C/[C@H]1CCCN1C [Example 5, (E)-N-[4-[[3-Chloro-4-(2-pyridylmethoxy)phenyl]amino]-3-cyano-7-ethoxy-6-quinolyl]-3-[(2R)-1-methylpyrrolidin-2-yl]prop-2-enamide]",–,–,2.6 ± 0.94,8.83,3.4 ± 0.45,6470 ± 1810,4/6,3/6,well tolerant,–
